# Laboratory results as given in patent publication US8735443B2, “Method of treating diabetes-related vascular complications” (Kuwait University, priority 2008, dated 2014).
# Tests used:
# rat aortic rings = assay: Acetylcholine-induced endothelium dependent relaxation of aortic rings in organ chamber; format: in vivo; settings: diabetic arteries; apocynin 3×10^−4 mol/l, Tiron 10 mmol/l
# Description: In the experiments, with regard to the determination of endothelium dependent relaxation (EDR) in the aorta, EDR in response to various concentrations of acetylcholine (Ach) (10^−9 to 10^−6 mol/l) was assessed in norepinephrine (10^−7 mol/l) preconstructed rat aortic rings using an organ chamber bath. The effects of the NAD(P)H oxidase inhibitor apocynin (3×10^−4 mol/l) and the O2^− scavenger Tiron (10 mmol/l) on Ach-induced responses of diabetic arteries were also considered.
# aortic tissue = assay: Aortic superoxide production, lucigenin-enhanced chemiluminescence; format: in vivo, rat; settings: inhibitor added 60 min before; diphenylene iodonium 0.1 mM, apocynin 3 mM
# Description: In the study, with regard to measurement of vascular superoxide anion formation, O2^− concentration in aortic tissue was determined using a lucigenin-enhanced chemiluminescence method, and the resulting data were further confirmed by a cytochrome c-based technique. Segments of the thoracic aorta were placed into 2 ml Krebs-Henseleit buffer (KHB, pH 7.4), and prewarmed to 37° C. for one hour. Immediately before measurement, rings were transferred to scintillation vials containing KHB with 5 μmol/L lucigenin and the O2^− generated chemiluminescence was recorded for five minutes with a scintillation counter. The amount of O2^− produced was quantified using a standard curve of O2^− generation by xanthine/xanthine oxidase and the data are expressed as nmol per min, per mg, of wet weight. In some experiments, vessels were denuded of endothelium by gentle rubbing of the luminal surface, whereas in others, N^ω-nitro-L-arginine methyl ester (L-NAME) 0.1 mM, diphenylene iodonium 0.1 mM, or apocynin 3 mM were added 60 min before determining O2^− generation.
# NAD(P)H oxidase = NAD(P)H oxidase activity in aortic homogenates (lucigenin photoemission); format: biochemical, rat; settings: inhibitor added to tissue homogenate
# Description: Determination of NAD(P)H oxidase activity in the aorta was determined based on superoxide induced lucigenin photoemission. Enzyme assays were carried out in a final volume of 1 ml. containing (in mM) 50 phosphate buffer; pH 7.0, 1 EGTA, 150 sucrose, 0.5 lucigenin, 0.1 NAD(P)H and tissue homogenate. Enzyme reactions were initiated with the addition of lucigenin. Photoemission, expressed in terms of relative light units (RLU), was measured every 5 min. using a luminometer. All assays were carried out in the dark at room temperature.
# cultured arteries = assay: Cultured arteries of non-diabetic control animals exposed to TNF-α; design: species or system rat; settings: arteries of non-diabetic control animals exposed to TNF-α
# [1] = Cell viability after hydrogen peroxide (Cell Counting Kit-8), diabetic fibroblasts; format: cell-based, rat; settings: female, Coto Kakizaki (diabetic), rat, primary dermal fibroblasts from diabetic rats (DFs), DFs, 16 hours, read-out: loss in cell viability
# Source text: To determine the effect of α-lipoic acid on isolated cells from normal and diabetic rats, primary rat fibroblasts were derived from dorsal skin biopsies performed on four diabetic Coto Kakizaki rats (DFs) and four age-matched (12-14 months) and sex-matched (female) Wistar control rats (CFs). After sterilization in povidine solution, the rat skin was washed in sterile water and rinsed in 70% ethanol in phosphate-buffered saline (PBS). The epidermis and dermis were separated following overnight incubation in 0.25% Trypsin/EDTA at 4° C. Samples were washed, diced and digested for thirty minutes at 37° C. in collagenase type I (250 U/ml) dissolved in Dulbecco's modified Eagle medium (DMEM; Invitrogen) containing penicillin (100 U/ml), 2 mM L-glutamine and 26 mM HEPES. After collagenase treatment, the cells were dislodged, centrifuged and resuspended in medium supplemented with 10% fetal bovine serum. The cells were grown under standard conditions, and the medium was changed every three to four days. Control and diabetic fibroblasts were grown under normo-glycemic conditions (5.5 mM glucose) and used in experiments at passage 3 to 5.
# Fibroblasts were seeded at 1×10^4 cells/well on a 96-well plate. After a 24 hour incubation period, the cells were exposed to various concentrations of HP in serum-free medium at 37° C. for 2 hours [lactate dehydrogenase (LDH), a marker for necrotic cell death], or for 16 hours (cell viability). Quantification of cell viability was assessed using a Cell Counting Kit-8 (Dojindo, Kumamoto, Japan). The values obtained were normalized to the vehicle-treated cells. To measure the rate of necrotic cell death, an LDH release assay was performed using a CytoTox-ONE Homogeneous Membrane Integrity Assay kit (Promega). Expression of Nrf2 was inhibited by small-interfering RNA (siRNA) oligonucleotides. The sequences were designed and synthesized by Qiagen. The best silencing efficiency was obtained by incubating 2.0×10^5 cells/well in a 6-well plate with complexes formed by 5 nM siRNA (1 μl) and 9 μL of HiPerfect transfection reagent (Qiagen) dissolved in 90 μl medium, according to the manufacturer's instructions. The transfection was achieved by adding 0.9 ml of medium to the seeded cells followed by 100 μl of siRNA/HiPerfect complex. Knock-out efficiency was verified by real-time PCR and Western blot. Twenty-four hours later, 1 ml of fresh medium was added; 48 hr after transfection the cells were exposed to either vehicle or lipoic acid at a concentration of 500 μM.
compound,measurement,setting,value
"O=S(=O)(O)c1cc(O)c(O)c(S(=O)(=O)O)c1 [tiron, Tiron]",Ach-induced relaxation in diabetic arteries,rat aortic rings,improved
c1ccc2c(c1)[I+]c1ccccc1-2 [diphenyleneiodonium],O2− production of aorta of GK diabetic rats,aortic tissue,inhibited
same,reduction of production of O2− in the homogenate,NAD(P)H oxidase,> 95%
TNF-α,Ach-induced vasorelaxation,cultured arteries,impaired
same,caspase 3/7 activity,cultured arteries,elevated
same,levels of DNA fragmentation,cultured arteries,elevated
same,rate of O2− generation,cultured arteries,elevated
"OO [HP, hydrogen peroxide]","cytotoxicity at 16 h, 37.5 uM",[1]; 37.5 uM HP,17%
same,"cytotoxicity at 16 h, 50 uM",[1]; 50 uM HP,55%
same,"cytotoxicity at 16 h, 75 uM",[1]; 75 uM HP,78%
COc1cc(C(C)=O)ccc1O [apocynin],O2− production of aorta of GK diabetic rats,aortic tissue,inhibited
same,Ach-induced relaxation in diabetic arteries,rat aortic rings,improved
